Test results: ChEMBL document CHEMBL5579815, “Novel angiogenesis inhibitors with superoxide anion radical amplification effect: Surmounting the Achilles' heels of angiogenesis inhibitors and photosensitizers” (Eur J Med Chem, 2024)
Calls of active or inactive are those of the source. The calls are words filed in the database; no cut-off is given here.

Legend:
SK-MEL-28 [1] = test: (§1) Induction of apoptosis in human SK-MEL-28 cells assessed as necrotic cells at 1 uM preincubated for 24 hrs under hypoxic condition followed by media removal and irradiated with 650 nm 10 mW/cm2 light for 15 mins under hypoxic condition by Annexin V-FITC/propidium iodide staining based flow cytometry (reference value: 2.63%); format: functional
EA.hy 926 = test: (§2) Antiangiogenic activity in human EA.hy 926 cells assessed as reduction in cell viability at 0.008 to 1 uM preincubated for 24 hrs under hypoxic condition followed by media removal and irradiated with 650 nm 10 mW/cm2 light for 15 mins under hypoxic condition prior to media replacement and measured after 24 hrs by MTT assay; format: functional, cell-based; conditions: dose 0.008-1 µM
SK-MEL-28 [2] = test: as §1, with “at 0.5” for “at 1”, “under normoxic” for “under hypoxic”; format: functional
SK-MEL-28 [3] = test: as §1, with “late apoptotic” for “necrotic”, “normoxic” for “hypoxic”, “1.95%)” for “2.63%)”; format: functional
SK-MEL-28 [4] = test: Induction of ROS generation in human SK-MEL-28 cells at 1 uM incubated for 24 hrs under normoxic condition prior to DHE addition for 30 mins followed by media removal and irradiated with 650 nm 10 mW/cm2 light for 15 mins under normoxic condition by DAPI staining based fluorescence microscopy; format: functional, cell-based
SK-MEL-28 [5] = test: as §1, with “at 2” for “at 1”, “under normoxic” for “under hypoxic”; format: functional
SK-MEL-28 [6] = test: as §1, with “as viable” for “as necrotic”, “at 0.5” for “at 1”, “value: 93.62%)” for “value: 2.63%)”; format: functional; conditions: SK-MEL-28, light or radiation study, read-out: Activity
SK-MEL-28 [7] = test: as §1, with “early apoptotic” for “necrotic”, “normoxic” for “hypoxic”, “1.8%)” for “2.63%)”; format: functional
SK-MEL-28 [8] = test: as §1, with “as early apoptotic” for “as necrotic”, “at 2” for “at 1”, “under normoxic” for “under hypoxic”, “value: 1.8%)” for “value: 2.63%)”; format: functional
SK-MEL-28 [9] = test: as §1, with “as early apoptotic” for “as necrotic”, “at 0.5” for “at 1”, “value: 1.8%)” for “value: 2.63%)”; format: functional
SK-MEL-28 [10] = test: Induction of apoptosis in human SK-MEL-28 cells preincubated for 24 hrs under hypoxic condition followed by media removal and irradiated with 650 nm 10 mW/cm2 light for 15 mins under hypoxic condition by Annexin V-FITC/propidium iodide staining based flow cytometry; format: functional, cell-based; conditions: dose 0.5-2 µM
U-87 MG = test: as §2, with “Cytotoxicity against” for “Antiangiogenic activity in”, “U87” for “EA.hy 926”, “normoxic” for “hypoxic”; format: functional, cell-based; conditions: U-87MG ATCC, dose 0.008-1 µM

CCN(CC)c1ccc2nc3c4ccccc4/c(=N\CCCCCCNC(=O)c4cc(Oc5ccc(NC(=O)Nc6ccc(Cl)c(C(F)(F)F)c6)cc5)ccn4)cc-3sc2c1
Activity (SK-MEL-28 [1]): 19.45%
Activity (EA.hy 926): Active
Activity (SK-MEL-28 [2]): 11.1%
Activity (SK-MEL-28 [3]): 8.8%
Activity (SK-MEL-28 [4]): Active
Activity (SK-MEL-28 [5]): 6.54%
viability at 0.5 µM (SK-MEL-28 [6]): 78.3%
Activity (SK-MEL-28 [7]): 3.59%
Activity (SK-MEL-28 [8]): 39.5%
Activity (SK-MEL-28 [9]): 3.13%
Activity (SK-MEL-28 [10]): Dose-Dependent Effect
Activity (U-87 MG): Active
